Where two headings read alike, the source gives them in different places.
How the values were obtained:
L5178Y cells [1] = settings: read-out: Cytotoxicity IC50, L5178Y (natural product comparator), other cells 'Not available'; cited from earlier work
KB cells [2] = settings: read-out: Cytotoxicity IC50, KB (natural product comparator), other cells 'Not available'; cited from earlier work
[3] = Cytotoxicity assay (CellTiter-Glo) in Jurkat cells; format: cell-based; settings: human; Jurkat cells, 48 hours post drug incubation, cell viability by CellTiter-Glo, triplicate; read-out: Chromenone cytotoxicity IC50, Jurkat
Description: (§1) Jurkat and L5178Y cells were cultured in RPMI 1640 (ATCC), HL60 cells were cultured in Iscove's Modified Dulbecco's Medium (IMDM, ATCC), KB and MCF7 cells were cultured in Eagles Minimum Essential Medium (EMEM, ATCC), and SKOV3 cells in McCoy's 5a Medium (ATCC) supplemented with 10% Heat Inactivated Fetal Bovine Serum (FBS), and Penicillin and Streptomycin (P/S) at 37° C. in a 5% CO2 incubator.
(§2) Proliferating cells were seeded at approximately 20×10^3 cells per 50 μL per well into 96 well plates using a MultiFlo FX multi-mode dispenser (BioTek). On reaching ≈40% cell density, the cells were then incubated with varying concentrations (195 nM to 200 μM final) of test samples using a Biomek FXP Automated Workstation (Beckman Coulter). 48 hours post drug incubation, cell viability was determined using Promega's CellTiter-Glo Luminescent Cell Viability Assay according to the manufacturer's protocol on a plate reader (EnVision from PerkinElmer) in Luminescence mode. In each experiment, each unique condition (i.e., different sample type and concentration) was tested in triplicate. […] IC50 values for each treatment were calculated using Graph-Pad Prism 8.0 Software.

[4] = Cytotoxicity assay (CellTiter-Glo) in KB cells; format: cell-based; settings: human, 48 hours post drug incubation, cell viability by CellTiter-Glo, triplicate, read-out: Chromenone cytotoxicity IC50, KB
Description: as §1
(§3) Proliferating cells were seeded at approximately 20×10^3 cells per 50 μL per well into 96 well plates using a MultiFlo FX multi-mode dispenser (BioTek). On reaching ≈40% cell density, the cells were then incubated with varying concentrations (195 nM to 200 μM final) of test samples using a Biomek FXP Automated Workstation (Beckman Coulter). 48 hours post drug incubation, cell viability was determined using Promega's CellTiter-Glo Luminescent Cell Viability Assay according to the manufacturer's protocol on a plate reader (EnVision from PerkinElmer) in Luminescence mode. In each experiment, each unique condition (i.e., different sample type and concentration) was tested in triplicate. The percentage of test sample induced toxicity was calculated with respect to DMSO treated cells and graphed to give dose response curves. IC50 values for each treatment were calculated using Graph-Pad Prism 8.0 Software.

[5] = Cytotoxicity assay (CellTiter-Glo) in HL60 cells; format: cell-based; settings: human, 48 hours post drug incubation, cell viability by CellTiter-Glo, triplicate, read-out: Chromenone cytotoxicity IC50, HL60
Description: as §1, §2

Jurkat cells [6] = assay: Cytotoxicity assay (CellTiter-Glo) in Jurkat cells; format: cell-based; settings: for Cytotoxicity in Jurkat screening (in words): cytotoxicity screening in Jurkat cell lines, FIG. 20
Description: as §1, §2

[7] = Cytotoxicity assay (CellTiter-Glo) in L5178Y cells; format: cell-based; settings: mouse, 48 hours post drug incubation, cell viability by CellTiter-Glo, triplicate, read-out: Chromenone cytotoxicity IC50, L5178Y
Description: as §1, §2

L5178Y cells [8] = assay: Cytotoxicity assay (CellTiter-Glo) in L5178Y cells; format: cell-based; settings: 48 hours post drug incubation, cell viability by CellTiter-Glo, triplicate
Description: as §1, §2

HL60 cells [9] = assay: Cytotoxicity assay (CellTiter-Glo) in HL60 cells; format: cell-based; settings: 48 hours post drug incubation, cell viability by CellTiter-Glo, triplicate
Description: as §1, §2

HL60 cells [10] = settings: comparator natural product, other cells 'Not available', read-out: Cytotoxicity IC50, HL60 (natural product comparator); cited from earlier work
Jurkat cells [11] = settings: comparator natural product, other cells 'Not available', read-out: Cytotoxicity IC50, Jurkat (natural product comparator); cited from earlier work
KB cells [12] = assay: Cytotoxicity assay (CellTiter-Glo) in KB cells; format: cell-based; settings: 48 hours post drug incubation, cell viability by CellTiter-Glo, triplicate, read-out: Chromenone cytotoxicity IC50, KB
Description: as §1, §3

Compound: Dicerandrol C
- IC50 (L5178Y cells [1]): 10 µM

Compound: Phomoxanthone B
- IC50 (KB cells [2]): 4.1 µM

Compound: COc1ccc(-c2ccc(OC)c3c(=O)c(C(C)=O)c([C@@H](OC(C)=O)C(C)C)oc23)c2oc([C@@H](OC(C)=O)C(C)C)c(C(C)=O)c(=O)c12 [Compound 48c]
- IC50 at 48 h [3]: > 50 µM
- IC50 at 48 h [4]: > 50 µM
- IC50 at 48 h [5]: > 50 µM

Compound: COC(=O)C(C)(C)c1cc(=O)c2c(O)ccc(-c3ccc(O)c4c(=O)cc(C(C)(C)C(=O)OC)oc34)c2o1 [Compound 28c, Dimethyl 2,2′-(5,5′-Dihydroxy-4,4′-dioxo-4H,4′H-[8,8′-bichromene]-2,2′-diyl)bis(2-methylpropanoate)]
- Cytotoxicity in Jurkat screening (in words) (Jurkat cells [6]): highest levels of cytotoxicity
- IC50 at 48 h [4]: > 50 µM
- IC50 at 48 h [7]: 23 µM
- Chromenone cytotoxicity IC50, L5178Y (L5178Y cells [8]): low micromolar range
- Chromenone cytotoxicity IC50, HL60 (HL60 cells [9]): low micromolar range

Compound: Versixanthone F
- IC50 (HL60 cells [10]): 1 µM

Compound: Phomoxanthone A
- IC50 (Jurkat cells [11]): 0.5 µM
- IC50 (L5178Y cells [1]): 0.3 µM
- IC50 (KB cells [2]): 0.99 µM

Compound: 3-Acetyl-5-hydroxy-2-methyl-4H-1-benzopyran-4-one Dimer [Compound 43]
- IC50 (Jurkat cells [6]; Jurkat cells, 48 hours post drug incubation, cell viability by CellTiter-Glo, triplicate, read-out: Chromenone cytotoxicity IC50, Jurkat): 39 ± 1.1 µM
- IC50 (KB cells [12]): > 50 µM
- IC50 (L5178Y cells [8]; read-out: Chromenone cytotoxicity IC50, L5178Y): > 50 µM
- IC50 (HL60 cells [9]; read-out: Chromenone cytotoxicity IC50, HL60): > 50 µM

Compound: COC(=O)C(C)(C)c1cc(=O)c2c(OC)c(-c3ccc4oc(C(C)(C)C(=O)OC)cc(=O)c4c3OC)ccc2o1 [Compound 35c, Dimethyl 2,2′-(5,5′-Dimethoxy-4,4′-dioxo-4H,4′H-[6,6′-bichromene]-2,2′-diyl)bis(2-methylpropanoate)]
- Cytotoxicity in Jurkat screening (in words) (Jurkat cells [6]): highest levels of cytotoxicity
- IC50 at 48 h [4]: 41 ± 1.1 µM

Compound: COc1ccc(-c2ccc(OC)c3c(=O)c(C(C)=O)c(C)oc23)c2oc(C)c(C(C)=O)c(=O)c12 [Compound 42, 3,3′-Diacetyl-5,5′-dimethoxy-2,2′-dimethyl-4H,4′H-[8,8′-bichromene]-4,4′-dione]
- IC50 at 48 h [3]: > 50 µM
- IC50 at 48 h [4]: > 50 µM
- IC50 at 48 h [7]: > 50 µM

Compound: COC(=O)C(C)(C)c1cc(=O)c2c(OC)ccc(-c3ccc(OC)c4c(=O)cc(C(C)(C)C(=O)OC)oc34)c2o1 [Compound 39c, Dimethyl 2,2′-(5,5′-Dimethoxy-4,4′-dioxo-4H,4′H-[8,8′-bichromene]-2,2′-diyl)bis(2-methylpropanoate)]
- Cytotoxicity in Jurkat screening (in words) (Jurkat cells [6]): highest levels of cytotoxicity
- Chromenone cytotoxicity IC50, L5178Y (L5178Y cells [8]): low micromolar range
- Chromenone cytotoxicity IC50, HL60 (HL60 cells [9]): low micromolar range
- IC50 at 48 h [5]: 24 µM

Compound: O=c1cc(C2CCCO2)oc2c(-c3ccc(O)c4c(=O)cc(C5CCCO5)oc34)ccc(O)c12 (stereo not shown) [Compound 28e, 5,5′-Dihydroxy-2,2′-bis(tetrahydrofuran-2-yl)-4H,4′H-[8,8′-bichromene]-4,4′-dione]
- Cytotoxicity in Jurkat screening (in words) (Jurkat cells [6]): highest levels of cytotoxicity
- IC50 at 48 h [4]: > 50 µM
- IC50 at 48 h [7]: > 50 µM
- IC50 at 48 h [5]: > 50 µM

Source: patent US12649725B2 (Worcester Polytechnic Institute, priority 2020, dated 2026)
